Values joined by “and” are separate entries in the source; they are usually repeats but may differ in a detail not shown here. Identical values can stand only once.
What was measured:
HeLa = details: bulk resorufin, single well, 28.5 h, 10 µM, Bulk resorufin fluorescence
[1] = test system: T1, CTL2-GFP (C. trachomatis L2/434/Bu, GFP-expressing); assay: microbe, parasite or virus in culture; design: Intracellular C. trachomatis growth in HeLa cells, bulk GFP fluorescence relative to DMSO; details: Chlamydia trachomatis, HeLa, 28.5 h; bulk GFP, mean of 2; read-out: % of control remaining
T1 construct: L2/434/Bu, GFP-expressing
Method: MICs were calculated as described above.

in vitro [2] = details: human, hela cells, % viability
in vitro [3] = assay: in vitro; design: Viability of infected HeLa host cells, resazurin conversion, bulk resorufin fluorescence relative to DMSO; details: human, hela cells; bulk resorufin, mean of 2
[4] = test system: T2, C. trachomatis L2/434/Bu expressing GFP (CTL2-GFP); assay: microbe, parasite or virus in culture; design: C. trachomatis total inclusion area by high-content imaging, normalised to DMSO; details: Chlamydia trachomatis, HeLa, 28.5 h; total inclusion area; read-out: % of control remaining
T2 construct: L2/434/Bu GFP intracellular growth in HeLa cells
Outline: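 A 36,785-compound library was screened using bulk GFP and resorufin fluorescence, followed by Hoechst staining and high-content imaging of inclusions (GFP) and host nuclei. Inclusion area and number served as growth proxies and nuclei counts as a viability proxy. MICs were calculated from these readouts.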

Row | SMILES | % viability (HeLa) | activity at 1 µM [1] | activity at 5 µM [1] | activity at 10 µM [1] | viability at 28.5 h, 10 µM (in vitro [2]) | viability at 28.5 h, 1 µM (in vitro [3]) | viability at 28.5 h, 5 µM (in vitro [3]) | viability at 28.5 h, 10 µM (in vitro [3]) | activity at 1 µM [4] | activity at 5 µM [4] | activity at 10 µM [4]
1 | C[C@H]1CN2C[C@H](O)CC2CN1Cc1ccc(-c2ccccc2Cl)o1 (stereo partly drawn) [CBK285418] | 109% and 85.9% |  |  |  |  |  |  |  |  |  | 
2 | O=C(O)CC1C(=O)NC(=O)N1CCc1ccccc1 (stereo not drawn) [CBK287254] | 111% and 85.3% |  |  |  |  |  |  |  |  |  | 
3 | Cn1cc(C(NC(=O)c2nc(N)nc3c2CCCC3)[C@H]2C[C@@H](O)C2)cn1 (stereo partly drawn) [CBK307535] | 92.2% and 114% |  |  |  |  |  |  |  |  |  | 
4 | C[C@H]1CN2C[C@H](O)CC2CN1Cc1ccc(C(F)(F)F)cc1 (stereo partly drawn) [CBK285147] | 113% and 89.6% |  |  |  |  |  |  |  |  |  | 
5 | O=C1NCCN1CCNS(=O)(=O)c1csc2ccccc12 [CBK062602] | 117% and 90% |  |  |  |  |  |  |  |  |  | 
6 | Cc1onc(-c2ccccc2)c1CNC(=O)C1COc2ccccc2O1 (stereo not drawn) [CBK144086] | 104% and 80.3% |  |  |  |  |  |  |  |  |  | 
7 | Nc1cc2cccnc2c(-c2cc(F)cc(F)c2)n1 [CBK061908] | 80.4% and 85.8% and 103% |  |  |  |  |  |  |  |  |  | 
8 | COc1cc2c(cc1OC)CN(C(=O)c1ccc3occc3c1)CC2 [CBK122746] | 66.2% and 36.8% |  |  |  |  |  |  |  |  |  | 
9 | O=C(Nc1cccnc1)c1cnc2cc(C(F)(F)F)ccc2c1O [CBK107474T] | 88% |  |  |  |  |  |  |  |  |  | 
10 | c1ccc(CN2CCC(Oc3cncc(OCCN4CCOCC4)n3)C2)cc1 (stereo not drawn) [CBK084478] | 107% and 84% |  |  |  |  |  |  |  |  |  | 
11 | CC(C)C(=O)Nc1cc2cccnc2c(-c2cccc(C(F)(F)F)c2)n1 [CBK081266] | 125% and 100% |  |  |  |  |  |  |  |  |  | 
12 | O=C(Nc1cccc2c(NC(=O)N3CCCCC3)cccc12)N1CCCCC1 [CBK010775] |  | 130% | 67.1% | 38.3% | 109% | 89.2% | 88.8% | 84.5% | 97.8% | 43.6% | 23.8%
13 | Fc1cccc(F)c1OCCOc1nc(N2CCNCC2)ccc1C(F)(F)F [CBK003977A] |  | 86.2% | 37.8% | 27.8% | 87% | 92.3% | 90.5% | 89.4% | 53.4% | 9.38% | 1.96%
14 | CCOC(=O)CN1CCC(Oc2nccnc2OCCN2C(=O)CCC2=O)CC1 [CBK084348] | 120% and 80% |  |  |  |  |  |  |  |  |  | 
15 | COCC(=O)N[C@H]1C[C@H]2C(=O)Nc3ccc(/C=C/c4ccccc4)cc3C(=O)N2C1 [CBK289366] |  | 87.5% | 12% | 2.8% | 90.2% | 93.1% | 96.4% | 98.1% | 105% | 11.7% | 1.71%
16 | COc1ccc([C@@]23CC[C@@H](Nc4nc(-c5ccc(Br)cc5)cs4)C[C@@H]2N(C)CC3)cc1OC [CBK036543] |  | 138% | 104% | 94.2% | 87.7% | 91.3% | 91% | 109% | 76.2% | 68.6% | 45.2%
17 | CC1=NN(c2ccc(C)cc2)C(=O)/C1=C\Nc1ccc(S(=O)(=O)Nc2nc(C)cc(C)n2)cc1 [CBK262398] |  | 83.6% | 16.3% | 2.4% | 92.8% | 94.6% | 99.4% | 118% | 91.7% | 40.5% | 18%
18 | COc1ccc([C@@H]2CN(C)C[C@H]2NC(=O)Nc2ccc(Cl)c(Cl)c2)cc1OC [CBK081111] |  | 118% | 21.4% | 8.62% | 99.3% | 92.3% | 92.2% | 88.4% | 105% | 25.8% | 3.39%
19 | CCOc1ccsc1C(=O)NC1Cc2ccccc2C1 [CBK200359] |  | 57.4% | 3.62% | 6.67% | 82.6% | 104% | 96.4% | 93% | 88.7% | 0.493% | 0.44%
20 | CC(=O)NC[C@H]1CN(c2ccc(-c3nnc([C@@H](C)N)s3)c(F)c2)C(=O)O1 [CBK017966] |  | 90.2% | 10% | 3.77% | 93.2% | 92.5% | 87.1% | 89.3% | 84.6% | 5.78% | 2.78%
21 | CN1CCCN(c2ccc(NS(=O)(=O)c3cccc(F)c3)c3ccccc23)CC1 [CBK200010C] |  | 108% | 66.2% | 43.7% | 84.9% | 94.4% | 100% | 95.1% | 77.8% | 43.7% | 26.8%
22 | CN(C(=O)CC1SC(NCC2CCCCC2)=NC1=O)c1ccccc1 (stereo not drawn) [CBK067371] | 87.9% and 110% |  |  |  |  |  |  |  |  |  | 
23 | CC(Oc1ccccc1)C(=O)Nc1ccccc1C(=O)O (stereo not drawn) [CBK262854] | 109% and 87% |  |  |  |  |  |  |  |  |  | 
24 | O=C(O)CCC(=O)Nc1ccc(Br)cn1 [CBK056920] | 89.9% and 110% |  |  |  |  |  |  |  |  |  | 
25 | CC(C)(CN)CN(Cc1ccc(-c2ccccc2)cc1)C(=O)Nc1ccccc1C(C)(C)C [CBK002476C] |  | 98.7% | 75.3% | 16.4% | 94.2% | 118% | 114% | 63.6% | 114% | 50.1% | 2.01%
26 | Cc1ccc(Cn2c(=N)n(CC(=O)c3cc(C(C)(C)C)c(O)c(C(C)(C)C)c3)c3ccccc32)cc1 [CBK262458B] |  | 127% | 56.5% | 91.9% | 82.6% | 92.1% | 96.7% | 101% | 99.9% | 36.5% | 52%
27 | COc1ccc(C(C)C)cc1-c1cnc2ncccc2c1N [CBK083686] | 108% and 81.3% |  |  |  |  |  |  |  |  |  | 

Reference: paper PMC12040169 (PLOS Biology, 2025)
